Measurements published in publication PMC6272327, “Discovery of Metal Ions Chelator Quercetin Derivatives with Potent Anti-HCV Activities” (Molecules, 2015).
Read-outs that look alike come from different tables or passages of the source.

Tests used:
[1] = Cell viability / cytotoxicity by MTT method; assay type: cell-based; conditions: human
Experimental: (§1) The inhibition of HCV by all synthesized quercetin derivatives was evaluated following a previously reported procedure. All newly synthesized compounds were tested in authentic HCV infection/replication system in the human hepatoma cell lines Huh7.5.1 using mycophenolic acid (MPA) as control compound. The cytotoxicity effect of the test compounds was also evaluated in the same cell line by MTT method. Antiviral effect and cytotoxicity effect were summarized as EC50 and CC50 respectively, as well as the selective index (SI) which is the ratio of CC50 to EC50. The stability of quercetin-3-O-ester compounds were also tested in the same buffer as the antiviral activity assay at 37 °C and the hydrolysate was measured by HPLC.
After the EGFP signal was read, cell viability was measured in the same plate by the MTT [3-(4,5-dimethylthiazol-2-yl)-2,5-diphenyltetrazolium bromide; Sigma-Aldrich, St. Louis, MO, USA] method. Briefly, MTT (1 mg/mL) was dissolved in PBS. Cell culture supernatants were removed and replaced with MTT and further cultured for 4 h; cells were then lysed with 10% sodium dodecyl sulfate (SDS), 50% N,N-dimethylformamide, pH 7.2. OD570 values were read. The percentage of cell death was calculated against the control well without compounds.

[2] = test system: HCV infectious virus J399EM; assay: Anti-HCV assay in authentic HCV infection/replication system (J399EM EGFP reporter virus) in Huh7.5.1 cells; assay type: cell-based, hepatitis C virus (JFH1-derived, genotype 2a); conditions: for EC50: Hepatitis C virus, Huh-7.5.1, 72 h; for SI (selectivity index): ratio of CC50 to EC50, Huh7.5.1 cells
Experimental: as §1
The biological assays were performed following a previously reported procedure. The Huh7.5.1 cell line and the HCV infectious virus J399EM were kindly provided by Xin-Wen Chen, Wuhan Institute of Virology, Chinese Academy of Sciences. Huh7.5.1 cells were cultured in Dulbecco’s modified Eagle’s medium (DMEM) containing 10% (v/v) fetal bovine serum, 0.5 mg/mL G418, 100 IU/mL penicillin, and […].
J399EM is an infectious HCV virus derived from the JFH1 virus (genotype 2a) by insertion of enhanced green fluorescent protein (EGFP) into the HCV NS5A region. The establishment of the infectious J399EM HCV virus has been described previously. J399EM was propagated in Huh7.5.1 cells. Briefly, Huh7.5.1 cells were infected with J399EM at MOI = 0.1 and cultured for 4 days. Culture supernatant was collected and filtered through a 0.45 μm membrane and stored at −80 °C as virus stock. Virus titer was tested in Huh7.5.1 cells. Stocks were serially diluted, and the foci forming units (FFU) were determined as the number of fluorescent colonies formed in infected Huh7.5.1.
All the compounds were first dissolved in DMSO at 50 mM, and then diluted to various concentrations (50 μM, 25 μM, 12.5 μM, 6.3 μM and 3.1 μM). Approximately 1 × 10^4 Huh7.5.1 cells per well were plated in an opaque 96-well tissue culture plate (Costar 3904). The next day, the medium was replaced by J399EM virus at an MOI of 0.3. Four hours later, the virus inoculum was removed and medium containing different concentrations of compounds was added. After an additional 72 h of incubation, the culture medium was removed and the EGFP autofluorescence was measured by using a […] with excitation at 488 nm and emission at 516 nm. Compounds and controls were performed in duplicate and each experiment repeated independently at least twice.

[3] = Huh7.5.1 cells, MTT, concentration required to reduce cell proliferation by 50%, average of duplicate determinations, read-out: CC50

SMILES | melting point [°C] | CC50 [1, 3] [µM] | EC50 [2] [µM] | SI (selectivity index) [2] | CC50 [1] [µM]
Nc1ccccc1C(=O)Oc1c(-c2ccc(O)c(O)c2)oc2cc(O)cc(O)c2c1=O [Compound 4c, 2-(3,4-Dihydroxyphenyl)-5,7-dihydroxy-4-oxo-4H-chromen-3-yl 2-aminobenzoate] | 198 to 199 | > 50 | 12.8 ± 2.8 | >3.9 | 
O=C(Oc1c(-c2ccc(O)c(O)c2)oc2cc(O)cc(O)c2c1=O)c1ccccc1F [Compound 4b, 2-(3,4-Dihydroxyphenyl)-5,7-dihydroxy-4-oxo-4H-chromen-3-yl 2-fluorobenzoate] | 186 to 187 |  | 12.9 ± 3.2 | >3.9 | > 50
O=c1c(O)c(-c2ccc(O)c(O)c2)oc2cc(OCc3ccc([N+](=O)[O-])cc3)cc(O)c12 [Compound 3s, 2-(3,4-Dihydroxyphenyl)-3,5-dihydroxy-7-((4-nitrobenzyl)oxy)-4H-chromen-4-one] | 253.5 to 254.5 |  | 4.3 ± 0.2 | 4.5 | 19.6 ± 0.2
Cc1ccccc1COc1cc(O)c2c(=O)c(O)c(-c3ccc(O)c(O)c3)oc2c1 [Compound 3e, 2-(3,4-Dihydroxyphenyl)-3,5-dihydroxy-7-((2-methylbenzyl)oxy)-4H-chromen-4-one] | 241 to 242 |  | 4.9 ± 0.6 | 4.4 | 21.7 ± 1.4
N#Cc1ccccc1C(=O)Oc1c(-c2ccc(O)c(O)c2)oc2cc(O)cc(O)c2c1=O [Compound 4e, 2-(3,4-Dihydroxyphenyl)-5,7-dihydroxy-4-oxo-4H-chromen-3-yl 2-cyanobenzoate] | 196 to 197 |  | 20.2 ± 8.6 | >2.5 | > 50
O=c1c(O)c(-c2ccc(O)c(O)c2)oc2cc(OCc3cccc(Br)c3)cc(O)c12 [Compound 3j, 7-((3-Bromobenzyl)oxy)-2-(3,4-dihydroxyphenyl)-3,5-dihydroxy-4H-chromen-4-one] | 234 to 236 |  | 4.1 ± 0.3 | 5.4 | 22.3 ± 1.2
O=C(Oc1c(-c2ccc(O)c(O)c2)oc2cc(O)cc(O)c2c1=O)c1cccc(F)c1 [Compound 4f, 2-(3,4-Dihydroxyphenyl)-5,7-dihydroxy-4-oxo-4H-chromen-3-yl 3-fluorobenzoate] | 211 to 213 |  | 9 ± 4.5 | >5.6 | > 50
O=C(Oc1c(-c2ccc(O)c(O)c2)oc2cc(O)cc(O)c2c1=O)c1ccccc1 [Compound 4a, 2-(3,4-Dihydroxyphenyl)-5,7-dihydroxy-4-oxo-4H-chromen-3-yl benzoate] | 173 to 174 |  | 14.3 ± 5.1 | >3.5 | > 50
Nc1cccc(C(=O)Oc2c(-c3ccc(O)c(O)c3)oc3cc(O)cc(O)c3c2=O)c1 [Compound 4g, 2-(3,4-Dihydroxyphenyl)-5,7-dihydroxy-4-oxo-4H-chromen-3-yl 3-aminobenzoate] | 216 to 217 |  | 21.1 ± 1.3 | >2.4 | > 50
O=C(Oc1c(-c2ccc(O)c(O)c2)oc2cc(O)cc(O)c2c1=O)c1ccc(Cl)cc1 [Compound 4o, 2-(3,4-Dihydroxyphenyl)-5,7-dihydroxy-4-oxo-4H-chromen-3-yl 4-chlorobenzoate] | 194 to 195 |  | 14.3 ± 2.2 | >3.5 | > 50
COc1ccccc1C(=O)Oc1c(-c2ccc(O)c(O)c2)oc2cc(O)cc(O)c2c1=O [Compound 4d, 2-(3,4-Dihydroxyphenyl)-5,7-dihydroxy-4-oxo-4H-chromen-3-yl 2-methoxybenzoate] | 183 to 184 |  | 11.7 ± 1.3 | >4.3 | > 50
O=c1c(O)c(-c2ccc(O)c(O)c2)oc2cc(OCc3ccc(Cl)cc3)cc(O)c12 [Compound 3o, 7-((4-Chlorobenzyl)oxy)-2-(3,4-dihydroxyphenyl)-3,5-dihydroxy-4H-chromen-4-one] | 266 to 267 |  | 3.9 ± 0.3 | 3.9 | 15.1 ± 0.1
O=c1c(O)c(-c2ccc(O)c(O)c2)oc2cc(OCc3cccc([N+](=O)[O-])c3)cc(O)c12 [Compound 3m, 2-(3,4-Dihydroxyphenyl)-3,5-dihydroxy-7-((3-nitrobenzyl)oxy)-4H-chromen-4-one] | 264 to 266 |  | 6.6 ± 1.1 | 2.3 | 15 ± 0.1
Nc1ccc(C(=O)Oc2c(-c3ccc(O)c(O)c3)oc3cc(O)cc(O)c3c2=O)cc1 [Compound 4l, 2-(3,4-Dihydroxyphenyl)-5,7-dihydroxy-4-oxo-4H-chromen-3-yl 4-aminobenzoate] | 233 to 234 |  | 23.8 ± 0.8 | >2.1 | > 50
N#Cc1ccc(COc2cc(O)c3c(=O)c(O)c(-c4ccc(O)c(O)c4)oc3c2)cc1 [Compound 3r, 4-(((2-(3,4-Dihydroxyphenyl)-3,5-dihydroxy-4-oxo-4H-chromen-7-yl)oxy)methyl)benzonitrile] | 252 to 254 |  | 6.2 ± 0.2 | 1.6 | 10.1 ± 0.1
N#CCCCOc1c(-c2ccc(O)c(O)c2)oc2cc(O)cc(O)c2c1=O [Compound 12d, 4-(2-(3,4-Dihydroxyphenyl)-5,7-dihydroxy-4-oxo-4H-chromen-3-yloxy)butanenitrile] | 169 to 171 |  | > 50 |  | > 50
O=C(Oc1c(-c2ccc(O)c(O)c2)oc2cc(O)cc(O)c2c1=O)c1ccc(F)cc1 [Compound 4k, 2-(3,4-Dihydroxyphenyl)-5,7-dihydroxy-4-oxo-4H-chromen-3-yl 4-fluorobenzoate] | 203 to 205 |  | 9.7 ± 3.1 | 3.6 | 35 ± 2.4
Cc1ccc(COc2cc(O)c3c(=O)c(O)c(-c4ccc(O)c(O)c4)oc3c2)cc1 [Compound 3q, 2-(3,4-Dihydroxyphenyl)-3,5-dihydroxy-7-((4-methylbenzyl)oxy)-4H-chromen-4-one] | 261 to 264 |  | 6.7 ± 1.4 | 2.4 | 15.9 ± 1
O=c1c(OCCO)c(-c2ccc(O)c(O)c2)oc2cc(O)cc(O)c12 [Compound 12c, 2-(3,4-Dihydroxyphenyl)-5,7-dihydroxy-3-(2-hydroxyethoxy)-4H-chromen-4-one] |  |  | 26.3 ± 3.1 | >1.9 | > 50
COc1c(-c2ccc(O)c(O)c2)oc2cc(O)cc(O)c2c1=O [Compound 12a, 2-(3,4-Dihydroxyphenyl)-5,7-dihydroxy-3-methoxy-4H-chromen-4-one] |  |  | 11.2 ± 0.1 | >4.5 | > 50
N#Cc1cccc(COc2cc(O)c3c(=O)c(O)c(-c4ccc(O)c(O)c4)oc3c2)c1 [Compound 3l, 3-(((2-(3,4-Dihydroxyphenyl)-3,5-dihydroxy-4-oxo-4H-chromen-7-yl)oxy)methyl)benzonitrile] |  | 10.6 ± 0.5 | 5.4 ± 0.5 | 2.0 | 
